The source of these data is US10813981B2, “Saposin B binds the lipofuscin bisretinoid A2E and prevents its enzymatic and photo degradation” (Syracuse University, priority 2017, dated 2020).

Residue numbers refer to the chain shown, from its start.

For assay [1], the target named is T1, SapB (Homo sapiens, UniProt P07602).
T1 construct: made in house; host or cells: E. coli
T1 sequence (P07602 195-273 limits assumed): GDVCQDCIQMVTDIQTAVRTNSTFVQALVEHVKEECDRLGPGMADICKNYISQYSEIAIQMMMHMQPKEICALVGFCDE
Put plainly: Fluorescence quenching titration of SapB with ligand (double logarithmic Stern-Volmer analysis). The format is binding. Particulars: 40 μM SapB, 50 mM phosphate buffer pH 5.5, average of three runs; for Kd: read-out: LogKA of binding by SapB (converted). The protocol: A2E and SapB were prepared and purified according to literature reports. To determine the A2E/protein binding stoichiometry, a fluorescence titration was carried out by incrementally adding small amounts of A2E to a solution of SapB (FIG. 2). […] A double logarithmic plot of
Fluorescence quenching measurements were performed on a Varian Cary Eclipse fluorimeter equipped with a QNW Peltier temperature controller. The experiments were conducted at 25.00±0.01° C. in 50 mM phosphate buffer, pH 5.50 or 7.40 using 278 nm excitation wavelength for sapB emission spectra at 325 nm (FIG. 2) or 444 nm excitation for A2E emission at 602 nm (FIG. 3) with excitation and emission monochromators bandwidth of 5 nm each. The fluorescence quenching data were analyzed using OriginLab software version 8.
The interaction of SapB (prepared as described above) with a variety of ligands was followed by monitoring the quenching of the fluorescence intensities of the protein's tyrosine residues upon binding (FIG. 12 Panels a-f).
For each ligand tested 40 μM SapB in 50 mM phosphate buffer at pH 5.5 was titrated with ligand and quenching was monitored at the fluorescence maxima at 330 nm. […] All of the fluorescence data were analyzed by a double logarithmic Stern-Volmer plot, shown for all ligands, using the emission maxima to determine binding affinity, presented in Table 3, and using the following equation
Materials and Methods—Saposin B (SapB) was prepared and purified as described above. Briefly, SapB solutions in this study were prepared in 50 mM phosphate buffer, pH 5.5. […] Ligand solutions were prepared in 100% dimethylformamide (DMF) to a concentration of 2 mM, with the exception of hydoxychloroquine (HCQ), which was prepared in 50 mM phosphate buffer, pH 5.5. […] 4.2. Fluorescence Spectroscopy. Fluorescence quenching measurements were performed on a Varian Cary Eclipse fluorimeter equipped with a QNW Peltier temperature controller. The binding experiments were conducted at 25.00±0.01° C. in 50 mM phosphate buffer, pH 5.5, using 278 nm excitation wavelength for SapB emission spectra at 330 nm (FIG. 1a-f) with excitation and emission monochromators bandwidth of 5 nm each. Temperature sensitive binding experiments were performed between 20.00±0.01 and 40.00±0.01° C. using 278 nm excitation wavelength for SapB emission spectra at 331 nm, with excitation and emission monochromators bandwidth of 5 nm each. The fluorescence quenching data were analyzed using OriginLab software version 8.

For a further assay, the target named is T2, SapB mutant E69A (Homo sapiens, UniProt P07602, E263A).
T2 construct: is a product of the post-translational cleavage of prosaposin, along with SapA, SapC, and SapD
T2 sequence (P07602 195-273 E263A): T1 sequence (P07602 195-273 limits assumed) with E69A
In words: Fluorescence binding assay (Stern-Volmer and temperature dependent), E69A with ATO. As to conditions: 25° C.; read-out: KA at 25° C., E69A-ATO. On the procedure: The deviation observed for [SapB-ATO]complex from the trend warranted further investigation. In order to examine this deviation, a previously described SapB mutant […] (denoted as […] from here on) was used. Fluorescence studies were performed with […] and ATO as described herein for wild type SapB. […] Isothermal titration calorimetry has shown that [SapB-ATO]complex formation has a larger enthalpic contribution than [SapB-CQ]complex and [SapB-CoQ10]complex. Thus, the shift in binding affinity between [SapB-ATO]complex and [[…]-ATO]complex binding may be due to a shift in the thermodynamics of binding. In order to test this, temperature dependent fluorescence studies were performed with […] and ATO, as well as with SapB and ATO. Fluorescence titration experiments were carried out at five different temperatures for each of the […]-ATO and SapB-ATO experiments (FIG. 14). At each temperature, protein was prepared in phosphate buffer solution and ATO was then added via titration. The quenching of SapB or […] fluorescence was monitored at 330 nm and the KA was calculated via double logarithmic Stern-Volmer analysis. […] Fluorescence Spectroscopy. Fluorescence quenching measurements were performed on a Varian Cary Eclipse fluorimeter equipped with a QNW Peltier temperature controller. […] The fluorescence quenching data were analyzed using OriginLab software version 8.

Assay [2] concerns the target T1, SapB. In words: Temperature dependent fluorescence binding assay, SapB with ATO. As to conditions: 25° C.; read-out: KA at 25° C., SapB-ATO. On the procedure: Isothermal titration calorimetry has shown that [SapB-ATO]complex formation has a larger enthalpic contribution than [SapB-CQ]complex and [SapB-CoQ10]complex. Thus, the shift in binding affinity between [SapB-ATO]complex and [[…]-ATO]complex binding may be due to a shift in the thermodynamics of binding. In order to test this, temperature dependent fluorescence studies were performed with […] and ATO, as well as with SapB and ATO. Fluorescence titration experiments were carried out at five different temperatures for each of the […]-ATO and SapB-ATO experiments (FIG. 14). At each temperature, protein was prepared in phosphate buffer solution and ATO was then added via titration. The quenching of SapB or […] fluorescence was monitored at 330 nm and the KA was calculated via double logarithmic Stern-Volmer analysis. The best-fit plot of InKeq vs. 1/T, where was used to calculate the standard enthalpy, entropy, and Gibb's Free energy of binding for the formation of [[…]-ATO]complex and Materials and Methods-Saposin B (SapB) was prepared and purified as described above. […] Fluorescence Spectroscopy. Fluorescence quenching measurements were performed on a Varian Cary Eclipse fluorimeter equipped with a QNW Peltier temperature controller. […] The fluorescence quenching data were analyzed using OriginLab software version 8.

The target in assay [3] is T3, pre-formed [SapB-Ligand]complex (Homo sapiens, UniProt P07602).
T3 construct: is a product of the post-translational cleavage of prosaposin, along with SapA, SapC, and SapD; made in house; host or cells: E. coli
T3 sequence (P07602 195-273 limits assumed): T1 sequence (P07602 195-273 limits assumed)
Put plainly: Competition / order of addition fluorescence binding with pre-formed SapB complexes. Particulars: A2E fluorescence at 602 nm, excitation 444 nm, pH 5.5. The protocol:
We have reported in an earlier study the binding properties of SapB to CoQ10 (a bone fide substrate). To determine whether it binds to the same binding site on the protein or displaces A2E from SapB, a series of fluorescence titration experiments in the presence and absence of CoQ10 were performed.
An 800 μL, 20 μM SapB to 10 μM CoQ10 complex was made in pH 5.5 50 mM phosphate buffer. The complex was formed at room temperature in a 1 mL glass vial with gentle stirring for 10 minutes. The entire solution was then transferred to a clear fluorescence cuvette. Fluorescence experiments were performed under emission conditions on a Cary Eclipse Fluorescence Spectrophotometer, with an excitation wavelength of 444 nm, emission wavelength range of 500-800 nm, excitation slit width set to 10 nm, and emission slit width set to 10 nm. […] Analysis of A2E binding the SapB-CoQ10 complex was performed by tracking fluorescence intensity at A2E's peak emission wavelength of 602 nm and plotting it against the concentration of A2E added per each injection.
A SapB-ATO complex was formed by adding 20 μL of the experimental stock to 1 mL of the SapB experimental stock for a final volume of 1020 μL in a 1.5 mL Eppendorf tube. […] The entire 1020 μL was then transferred to a clear fluorescence cuvette. […]

For the compound `CC1=C(/C=C/C(C)=C/C=C/C(C)=C/C=C/C=C(C)/C=C/C=C(\C)C=O)C(C)(C)CCC1` [Apocarotenal, apo-carotenal], the “LogKA of binding by SapB” value at SapB [1] was 4.618. Turning to `O=C1C(O)=C([C@H]2CC[C@H](c3ccc(Cl)cc3)CC2)C(=O)c2ccccc21` [Atovaquone, atovaquone], the results for the Kd on SapB mutant E69A, on SapB [2] and at SapB [1] were 58.5 µM, 0.112 µM and 0.0288 µM, respectively. For `CCN(CC)CCCC(C)Nc1ccnc2cc(Cl)ccc12` (stereo not drawn) [Chloroquine, chloroquine], the Kd on SapB [1] was 70.1 µM. For the compound `COC1=C(OC)C(=O)C(C/C=C(\C)CC/C=C(\C)CC/C=C(\C)CCC=C(C)C)=C(C)C1=O` [Coenzyme Q4], the “LogKA of binding by SapB” value at SapB [1] turned out to be 5.103. Still for that read-out and setting: for `COC1=C(OC)C(=O)C(C/C=C(\C)CC/C=C(\C)CC/C=C(\C)CC/C=C(\C)CC/C=C(\C)CC/C=C(\C)CC/C=C(\C)CC/C=C(\C)CCC=C(C)C)=C(C)C1=O` [Coenzyme Q9] the value was 6.196. In the case of `COC1=C(OC)C(=O)C(C/C=C(\C)CC/C=C(\C)CC/C=C(\C)CC/C=C(\C)CC/C=C(\C)CC/C=C(\C)CC/C=C(\C)CC/C=C(\C)CC/C=C(\C)CCC=C(C)C)=C(C)C1=O` [Coenzyme Q10, coenzyme Q10], the “A2E binding on titration into SapB pre-complexed with the ligand” value in assay [3] is reported as “identical fluorescence titration pattern”. Further, the Kd at SapB [1] was 0.0631 µM.

`CCN(CCO)CCCC(C)Nc1ccnc2cc(Cl)ccc12` (stereo not drawn) [Hydoxychloroquine, hydroxychloroquine]: the Kd on SapB [1] is 155 µM. As for “phosphatidyl-choline [Phosphatidylcholine]”, the “LogKA of binding by SapB” value on SapB [1] amounted to 6.075. Still for that read-out and setting: the result for phosphatidylethanolamine reads 5.227.
